Data: PMC12140364, “Meisoindigo Acts as a Molecular Glue to Target PKMYT1 for Degradation in Chronic Myeloid Leukemia Therapy” (Advanced Science, 2025)
Blank lines part the entries; values can stand above or below the molecule they belong to.

Legend:
[1] = target: T1, PKMYT1 (protein kinase, membrane-associated tyrosine/threonine 1) (Homo sapiens, UniProt Q99640); assay: MST; LC-MS/MS adduct mapping; CETSA; C301A mutant abolishes binding
T1 construct: residues 75-362, N-terminal 6xHis, E. coli
T1 sequence (Q99640 75-362): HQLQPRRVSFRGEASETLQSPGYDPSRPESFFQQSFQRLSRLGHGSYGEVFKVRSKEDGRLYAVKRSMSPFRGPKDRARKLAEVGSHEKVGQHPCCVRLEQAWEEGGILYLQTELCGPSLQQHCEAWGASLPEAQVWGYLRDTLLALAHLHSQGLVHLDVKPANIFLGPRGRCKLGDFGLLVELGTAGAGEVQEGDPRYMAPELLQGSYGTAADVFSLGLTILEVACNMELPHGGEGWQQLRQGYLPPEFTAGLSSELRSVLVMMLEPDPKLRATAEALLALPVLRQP

[2] = target: T2, TRIM25 (Homo sapiens, UniProt Q14258); assay: MST; type: binding
T2 construct: recombinant TRIM25 (Origene, TP303757)
T2 sequence (Q14258 whole entry): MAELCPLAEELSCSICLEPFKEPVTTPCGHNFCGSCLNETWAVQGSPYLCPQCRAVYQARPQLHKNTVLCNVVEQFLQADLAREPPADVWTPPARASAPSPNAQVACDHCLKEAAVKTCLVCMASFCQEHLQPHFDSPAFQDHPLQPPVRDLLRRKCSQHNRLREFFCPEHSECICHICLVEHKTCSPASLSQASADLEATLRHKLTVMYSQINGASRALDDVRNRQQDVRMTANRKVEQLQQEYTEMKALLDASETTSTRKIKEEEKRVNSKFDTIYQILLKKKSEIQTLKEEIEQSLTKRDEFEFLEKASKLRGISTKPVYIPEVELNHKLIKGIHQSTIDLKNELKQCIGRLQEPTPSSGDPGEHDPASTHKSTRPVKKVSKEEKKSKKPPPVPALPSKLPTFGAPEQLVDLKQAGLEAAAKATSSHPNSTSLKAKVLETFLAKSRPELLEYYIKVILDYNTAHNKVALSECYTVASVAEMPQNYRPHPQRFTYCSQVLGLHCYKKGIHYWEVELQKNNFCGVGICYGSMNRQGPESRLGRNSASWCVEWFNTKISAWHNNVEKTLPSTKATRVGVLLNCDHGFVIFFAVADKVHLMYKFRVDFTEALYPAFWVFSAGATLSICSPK

[3] = target: T3, PKMYT1 (Homo sapiens, UniProt Q99640); assay: enzyme activity assay; type: biochemical
T3 sequence (Q99640 1-499): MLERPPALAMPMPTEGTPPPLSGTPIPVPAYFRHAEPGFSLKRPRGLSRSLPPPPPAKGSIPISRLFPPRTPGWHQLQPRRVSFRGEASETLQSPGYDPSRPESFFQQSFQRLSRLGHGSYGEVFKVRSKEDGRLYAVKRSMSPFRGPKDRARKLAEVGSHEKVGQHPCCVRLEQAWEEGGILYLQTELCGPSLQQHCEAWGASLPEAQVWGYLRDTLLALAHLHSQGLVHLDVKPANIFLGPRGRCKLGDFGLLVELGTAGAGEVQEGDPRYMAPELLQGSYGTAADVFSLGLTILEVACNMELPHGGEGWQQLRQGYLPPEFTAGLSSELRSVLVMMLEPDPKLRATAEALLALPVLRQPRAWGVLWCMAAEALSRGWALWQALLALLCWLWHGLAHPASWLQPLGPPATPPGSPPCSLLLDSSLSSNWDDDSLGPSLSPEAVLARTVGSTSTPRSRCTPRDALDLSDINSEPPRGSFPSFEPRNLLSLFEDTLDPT

[4] = target: T4, TRIM25 protein (Origene, TP303757) (UniProt Q14258 1-630); assay: MST; PKMYT1 (75-362) protein labelled with RED-NHS 2nd Generation, 40 nM, assay buffer with 0.05% Tween-20; TRIM25 in 2-fold dilution series; Monolith NT.115; without Mei; n = 3; settings: both partners purified
T4 construct: TRIM25, E3 ubiquitin ligase; also called recombinant TRIM25; E3 ligase TRIM25; source: bought: Origene (TP303757)
T4 sequence (Q14258 whole entry): as the sequence (Q14258 whole entry) above

Kd [1]: 2180 ± 960 nM
Kd [2]: 220 ± 100 nM
Molecule: CN1C(=O)/C(=C2/C(=O)Nc3ccccc32)c2ccccc21 [Mei, Meisoindigo]

IC50 [3]: 16.4 nM
Molecule: CCN(CC)CCOc1ccc(Nc2ncc3cc(-c4c(Cl)cccc4Cl)c(=O)n(C)c3n2)cc1 [PD0166285]

Kd [4]: 2940 nM
B1: recombinant PKMYT1 (75-362) (domain or fragment, human, UniProt Q99640 75-362, looked up)
chain: T1 sequence (Q99640 75-362)
modifications: labelled with RED-NHS 2nd Generation dye for MST
notes: No cleavage of the His tag is described; also called protein kinase, membrane-associated tyrosine/threonine 1; source: E. coli BL21(DE3), purified (Ni-resin)
